Tests used:
human 11β-HSD1 enzyme = biological target: T1, human 11β-HSD1 enzyme (Homo sapiens, UniProt P28845); assay: Cellular in vitro 11β-HSD1 enzyme inhibition assay (SPA, HEK293/11β-HSD1 cells); assay type: cell-based
T1 construct: stably transfected with a construct containing the full-length gene coding for the human 11β-HSD1 enzyme; expressed in transfected cells; host or cells: HEK293 (HEK293/11β-HSD1 cells)
Summary of the method: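 Stably transfected HEK293 cells expressing full-length human 11β-HSD1 were plated 24 h, then incubated with compound 2 h at 37 °C; cortisol formed was quantified by SPA with anti-cortisol antibody. Percent inhibition used no-cell (minimum) and no-compound (maximum) wells; IC50 from four-parameter logistic fit.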

human 11β-HSD2 = biological target: T2, human 11β-HSD2 (Homo sapiens, UniProt P80365); assay: Cellular in vitro 11β-HSD2 enzyme inhibition assay (CHO cells, TLC/phosphoimager); assay type: cell-based; settings: CHO cells stably transfected with human 11β-HSD2; Table 1
T2 construct: CHO cells stably transfected with the full-length gene coding for human 11β-HSD2 were used; expressed in transfected cells; host or cells: CHO
T2 sequence (P80365 1-405): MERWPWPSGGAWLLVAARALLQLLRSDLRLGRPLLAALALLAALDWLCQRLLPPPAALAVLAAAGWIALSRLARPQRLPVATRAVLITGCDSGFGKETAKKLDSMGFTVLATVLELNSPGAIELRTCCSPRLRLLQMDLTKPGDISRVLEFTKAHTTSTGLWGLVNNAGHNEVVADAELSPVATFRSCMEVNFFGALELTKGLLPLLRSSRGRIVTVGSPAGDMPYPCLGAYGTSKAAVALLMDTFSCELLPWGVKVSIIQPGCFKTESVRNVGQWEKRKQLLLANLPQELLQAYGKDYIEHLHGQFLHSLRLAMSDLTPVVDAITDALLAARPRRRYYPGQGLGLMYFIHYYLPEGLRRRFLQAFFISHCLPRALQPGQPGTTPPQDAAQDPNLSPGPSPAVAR
Description: Cellular In Vitro 11β-HSD2 Enzyme Inhibition Assay
For measurement of inhibition of 11β-HSD2, CHO cells stably transfected with the full-length gene coding for human 11β-HSD2 were used. Assays were carried out in 96-well microplates containing 1×10^5 cells/well. Controls and compounds were plated as above, so that the final DMSO concentration in each well was 1%. To initiate the assay, 90 μL of a solution of HAMS F-12 medium containing 1% glutamine, 1% penicillin and streptomycin, and 22 nM tritiated cortisol was added to each well of the assay plate. The plate was then incubated in 5% CO2, 95% O2 at 37° C. for 16 hours.
The assay solutions were transferred to glass tubes and 20 μL ethyl acetate added to each tube. Each tube was vortexed thoroughly and the upper layer containing the tritiated steroid transferred to a fresh glass tube. The solvent was evaporated by placing the tubes in a heating block at 65° C. under a stream of Nitrogen gas. 20 μL ethanol was added to each of the dried samples and vortexed briefly. Each sample was applied to a silica TLC plate and the plate dried. The plate was placed vertically in a glass tank containing 92% chloroform:8% ethanol and the solvent allowed to rise up the plate. The plate was dried, placed in an imaging cassette, and overlayed with a tritium imaging plate for 1-2 days. The amount of enzyme inhibition in each sample was determined by measuring the intensity of the substrate and product spots using a phosphoimager.
IC50 values for inhibitors were determined as described for 11β-HSD1.

[1] = HEK293, less than or equal to 1000 nM (1 μM)
[2] = HEK293 cells stably transfected with human 11β-HSD1, Table 1
[3] = HEK293, more than 1000 nM (1.0 μM) and less than or equal to 30 μM

T1 sequence (P28845 whole entry): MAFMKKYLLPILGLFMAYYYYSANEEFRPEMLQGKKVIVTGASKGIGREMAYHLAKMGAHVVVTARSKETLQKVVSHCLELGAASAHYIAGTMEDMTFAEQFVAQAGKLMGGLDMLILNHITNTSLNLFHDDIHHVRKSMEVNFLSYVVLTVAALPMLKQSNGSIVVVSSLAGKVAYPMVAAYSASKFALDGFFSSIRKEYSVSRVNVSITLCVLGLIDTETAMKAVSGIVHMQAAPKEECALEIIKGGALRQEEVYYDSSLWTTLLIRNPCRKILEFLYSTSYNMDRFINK

| Compound | IC50 (human 11β-HSD1 enzyme; [1]) [nM] | IC50 (human 11β-HSD1 enzyme; [2]) [nM] | IC50 (human 11β-HSD2) [nM] | IC50 (human 11β-HSD1 enzyme; [3]) [nM] |
| --- | --- | --- | --- | --- |
| CNC(=O)N1CCC(c2cc(C(=O)N3CCCC4CCCCC43)cs2)CC1 (stereo not drawn) [CC-106] | ≤ 1000 | 96 | > 10000 | – |
| CC1(C)CCCN(C(=O)c2csc(C3CCN(C(=O)NCCO)CC3)c2)CC1 [CC-175] | ≤ 1000 | 23 | > 10000 | – |
| COC(=O)N1CCC(c2cc(C(=O)N3CCCCC3c3ccccc3)cs2)CC1 (stereo not drawn) [CC-119] | ≤ 1000 | 61 | > 10000 | – |
| CC1(C)CCCN(C(=O)c2csc(C3CCOCC3)c2)C1 [CC-003] | ≤ 1000 | 150 | > 10000 | – |
| CC(=O)N1CCC(c2cc(C(=O)N3CCC[C@@H]4CCCC[C@@H]43)cs2)C1 (relative stereo) [CC-111, cis-1-{3-[4-(Octahydro-quinoline-1-carbonyl)-thiophen-2-yl]-pyrrolidin-1-yl}ethanone] | ≤ 1000 | 20 | > 10000 | – |
| CS(=O)(=O)NCCNC(=O)N1CCC(c2cc(C(=O)N3CCCC4CCCCC43)cs2)CC1 (stereo not drawn) [CC-168, cis-4-[4-(Octahydro-quinoline-1-carbonyl)-thiophen-2-yl]-piperidine-1-carboxylic acid(2-methanesulfonylamino-ethyl)-amide] | ≤ 1000 | 77 | > 10000 | – |
| O=C(c1csc(C2CCCCC2)c1)N1CCCCCC1 [DD-002, Azepan-1-yl-(5-cyclohexyl-thiophen-3-yl)-methanone] | ≤ 1000 | 882 | > 10000 | – |
| CCc1cc(C(=O)N2CCCCC2)c(Cl)s1 [AA-001, (2-Chloro-5-ethyl-thiophen-3-yl)-piperidin-1-yl-methanone] | ≤ 1000 | 281 | > 10000 | – |
| O=C(c1csc(C2CCNCC2)c1)N1CCC[C@@H]2CCCC[C@@H]21 (single isomer, unassigned) [CC-033, cis-(octahydro-quinolin-1-yl)-(5-piperidin-4-yl-thiophen-3-yl)-methanone] | – | 127 | > 10000 | – |
| CCc1cc(C(=O)N2CC3(C)CC2CC(C)(C)C3)cs1 (stereo not drawn) [AA-014, (5-Ethyl-thiophen-3-yl)-(1,3,3-trimethyl-6-aza-bicyclo[3.2.1]oct-6-yl)-methanone] | ≤ 1000 | 4 | > 10000 | – |
| O=C(c1csc(C2CCN(c3nc4ccccc4o3)CC2)c1)N1CCCC2CCCCC21 (stereo not drawn) [CC-129] | – | – | – | 1000 to 30000 |
| CC1(C)CCCN(C(=O)c2csc(C3CCN(CC(N)=O)CC3)c2)CC1 [CC-139] | – | – | – | 1000 to 30000 |
| CC1(C)CC2CC(C)(CN2C(=O)c2csc(C3CCNCC3)c2)C1 (single isomer, unassigned) [CC-075, (5-Piperidin-4-yl-thiophen-3-yl)-(1,3,3-trimethyl-6-aza-bicyclo[3.2.1]oct-6-yl)-methanone] | ≤ 1000 | – | – | – |
| COCc1cc(C(=O)N2CCCC3(CCCCC3)C2)cs1 [BB-007] | ≤ 1000 | 68 | > 10000 | – |
| O=C(C1CC1)N1CCC(c2cc(C(=O)N3CCCC4CCCCC43)cs2)CC1 (stereo not drawn) [CC-099] | ≤ 1000 | – | – | – |
| O=C(c1cc(C2CCOCC2)sc1Cl)N1CCCC2CCCCC21 (stereo not drawn) [CC-030] | ≤ 1000 | – | – | – |
| CC(=O)N1CCC(c2cc(C(=O)N3CCN4CCCCC4C3)cs2)CC1 (stereo not drawn) [CC-037] | – | – | – | 1000 to 30000 |
| CC1(C)CCCCN(C(=O)c2csc(C3CCOCC3)c2)C1 [CC-022] | ≤ 1000 | – | – | – |

— patent US8362008B2 (The University Of Edinburgh, priority 2007, dated 2013)
